The results in this text go back to ChEMBL document CHEMBL1158172, “Preparation and antibacterial activity of cyclic 2',3'-carbamate derivatives of azithromycin” (Eur J Med Chem, 2008).

Calls of active or inactive are those of the source. The calls are words filed in the database; no cut-off is given here.

One test has as its system Staphylococcus aureus. The experiment in a line: Antibacterial activity against Staphylococcus aureus ATCC 25923. Format: functional, organism-based.
The test system of the next test is Escherichia coli. Description: Antibacterial activity against Escherichia coli ATCC 25922. It is filed as functional, organism-based.

For the compound `CC[C@H]1OC(=O)[C@H](C)[C@@H](O[C@H]2C[C@@](C)(OC)[C@@H](O)[C@H](C)O2)[C@H](C)[C@@H](O[C@@H]2O[C@H](C)C[C@H]3[C@H]2OC(=O)N3C)[C@](C)(O)C[C@@H](C)CN(C)[C@H](C)[C@@H]2OC(=O)O[C@]12C`, the result in the test with Staphylococcus aureus and in the test on Escherichia coli was inactive.
Turning to `CC[C@H]1OC(=O)[C@H](C)[C@@H](O[C@H]2C[C@@](C)(OC)[C@@H](O)[C@H](C)O2)[C@H](C)[C@@H](O[C@@H]2O[C@H](C)C[C@H]3[C@H]2OC(=O)N3C)[C@](C)(O)C[C@@H](C)CN[C@H](C)[C@@H]2OC(=O)O[C@]12C`, the result in the test on Staphylococcus aureus and in the test with Escherichia coli was inactive.
